Source: ChEMBL document CHEMBL5215006, “Antitumor Activity of Piceamycin by Upregulation of N-Myc Downstream-Regulated Gene 1 in Human Colorectal Cancer Cells” (J Nat Prod, 2022)
The source made the active and inactive calls. The calls are words filed in the database; no cut-off is given here.

What was measured:
SW480 [1] = assay: Antitumor activity against human SW480 cells assessed as upregulation of NDRG1 protein expression at 0.35 to 1.4 uM incubated for 24 hrs by immunoblotting assay; type: functional, cell-based; conditions: dose 0.35-1.4 µM, DDE = dose-dependent effect
HCT-116 [2] = assay: Antitumor activity against human HCT-116 cells xenografted Balb/c mouse assessed as decrease in Ki67 protein expression at 3 mg/kg,ip administrated for 18 days by 3 times per week by immunoblotting assay; type: functional, organism-based; conditions: time 18.0 day
HCT-116 [3] = assay: Antimigratory activity against highly liver metastatic human HCT-116 cells assessed as upregulation of E-cadherin protein expression at 0.075 to 0.3 uM incubated for 24 hrs by immunoblotting assay; type: functional, cell-based; conditions: dose 0.075-0.3 µM
SW480 [4] = assay: Antitumor activity against human SW480 cells assessed as upregulation of NDRG1 gene expression at 0.35 to 1.4 uM incubated for 24 hrs by RT-PCR method; type: functional, cell-based; conditions: dose 0.35-1.4 µM, DDE = dose-dependent effect
SW480 [5] = assay: Inhibition of cell migration in human SW480 cells at 0.35 to 1.4 uM incubated for 24 hrs by wound-healing assay; type: functional, cell-based; conditions: dose 0.35-1.4 µM, DDE = dose-dependent effect
HCT-116 [6] = assay: Antimigratory activity against highly liver metastatic human HCT-116 cells assessed as downregulation of Snail protein expression at 0.075 to 0.3 uM incubated for 24 hrs by immunoblotting assay; type: functional, cell-based; conditions: dose 0.075-0.3 µM
HCT-116 [7] = assay: Cell cycle arrest in human HCT-116 cells assessed as accumulation at Sub-G1 phase at 0.15 uM incubated for 24 hrs by RNaseA/propidium iodide staining based flow cytometry (reference value: 3.66 %); type: functional
HCT-116 [8] = assay: Cell cycle arrest in human HCT-116 cells assessed as accumulation at Sub-G1 phase at 0.075 uM incubated for 24 hrs by RNaseA/propidium iodide staining based flow cytometry (reference value: 3.66 %); type: functional
SW480 [9] = assay: Cell cycle arrest in human SW480 cells assessed as accumulation at Sub-G1 phase at 0.35 uM incubated for 24 hrs by RNaseA/propidium iodide staining based flow cytometry (reference value: 3.2 %); type: functional
SW480 [10] = assay: Cell cycle arrest in human SW480 cells assessed as accumulation at G0/G1 phase at 1.4 uM incubated upto 48 hrs by RNaseA/propidium iodide staining based flow cytometry; type: functional
SW480 [11] = assay: Cell cycle arrest in human SW480 cells assessed as accumulation at Sub-G1 phase at 1.4 uM incubated for 24 hrs by RNaseA/propidium iodide staining based flow cytometry (reference value: 3.2 %); type: functional
HCT-116 [12] = assay: Antitumor activity against human HCT-116 cells xenografted Balb/c mouse assessed as reduction in tumor growth at 1 mg/kg,ip administrated for 18 days by 3 times per week; type: functional; parameters: scale not given: the % may be the effect or the level left; conditions: time 18 day
HCT-116 [13] = assay: Induction of apoptosis in human HCT-116 cells assessed as early apoptotic cells at 0.075 uM incubated for 48 hrs by Annexin V-FITC/PI staining based flow cytometry analysis (Rvb= 2.51%); type: functional
SW480 [14] = assay: Cell cycle arrest in human SW480 cells assessed as accumulation at G0/G1 phase at 0.7 uM incubated for 24 hrs by RNaseA/propidium iodide staining based flow cytometry (reference value: 54.49 %); type: functional
SW480 [15] = assay: Induction of apoptosis in human SW480 cells assessed as early apoptotic cells at 0.35 uM incubated for 48 hrs by Annexin V-FITC/PI staining based flow cytometry analysis (Rvb= 2.07%); type: functional
HCT-116 [16] = assay: Induction of apoptosis in human HCT-116 cells assessed as upregulation of cleaved caspase-9 expression at 0.3 uM measured after 48 hrs by immunoblotting assay; type: functional, cell-based
HCT-116 [17] = assay: Antimigratory activity against highly liver metastatic human HCT-116 cells assessed as upregulation of NDRG1 protein expression at 0.075 to 0.3 uM incubated for 24 hrs by immunoblotting assay; type: functional, cell-based; conditions: dose 0.075-0.3 µM
SW480 [18] = assay: Induction of apoptosis in human SW480 cells assessed as upregulation of cleaved PARP expression at 1.4 uM measured at 12 to 48 hrs by immunoblotting assay; type: functional, cell-based; conditions: time 12-48 hrs, TDE = time-dependent effect
HCT-116 [19] = assay: Antimigratory activity against highly liver metastatic human HCT-116 cells assessed as downregulation of N-cadherin gene expression at 0.075 to 0.3 uM incubated for 24 hrs by RT-PCR method; type: functional, cell-based; conditions: dose 0.075-0.3 µM
SW480 [20] = assay: Induction of apoptosis in human SW480 cells assessed as upregulation of cleaved caspase-9 expression at 1.4 uM measured after 48 hrs by immunoblotting assay; type: functional, cell-based
HCT-116 [21] = assay: Induction of apoptosis in human HCT-116 cells assessed as upregulation of cleaved PARP expression at 0.3 uM measured at 12 to 48 hrs by immunoblotting assay; type: functional, cell-based; conditions: time 12-48 hrs, TDE = time-dependent effect
HCT-116 [22] = assay: Antitumor activity against human HCT-116 cells assessed as upregulation of NDRG1 gene expression at 0.075 to 0.3 uM incubated for 24 hrs by RT-PCR method; type: functional, cell-based; conditions: dose 0.075-0.3 µM, DDE = dose-dependent effect
SW480 [23] = assay: Induction of apoptosis in human SW480 cells assessed as early apoptotic cells at 0.7 uM incubated for 48 hrs by Annexin V-FITC/PI staining based flow cytometry analysis (Rvb= 2.07%); type: functional
HCT-116 [24] = assay: Anti-migratory activity against highly liver metastatic human HCT-116 cells assessed as reduction in migration to 0.075 to 0.3 uM incubated for 24 hrs by wound healing assay; type: functional, cell-based; conditions: dose 0.075-0.3 µM, DDE = dose-dependent effect
HCT-116 [25] = assay: Cell cycle arrest in human HCT-116 cells assessed as downregulation of CDK6 protein expression at 0.075 to 0.3 uM incubated for 24 hrs by immunoblotting assay; type: functional, cell-based; conditions: dose 0.075-0.3 µM
SW480 [26] = assay: Induction of apoptosis in human SW480 cells assessed as necrotic cells at 1.4 uM incubated for 48 hrs by Annexin V-FITC/PI staining based flow cytometry analysis (Rvb= 0.07%); type: functional
SW480 [27] = assay: Induction of apoptosis in human SW480 cells assessed as viable cells at 0.7 uM incubated for 48 hrs by Annexin V-FITC/PI staining based flow cytometry analysis (Rvb= 92.6%); type: functional; conditions: read-out: Activity
HCT-116 [28] = assay: Induction of apoptosis in human HCT-116 cells assessed as necrotic cells at 0.3 uM incubated for 48 hrs by Annexin V-FITC/PI staining based flow cytometry analysis (Rvb= 0.13%); type: functional
HCT-116 [29] = assay: Cell cycle arrest in human HCT-116 cells assessed as accumulation at G0/G1 phase at 0.3 uM incubated upto 48 hrs by RNaseA/propidium iodide staining based flow cytometry; type: functional
HCT-116 [30] = assay: Cell cycle arrest in human HCT-116 cells assessed as accumulation at G0/G1 phase at 0.075 uM incubated for 24 hrs by RNaseA/propidium iodide staining based flow cytometry (reference value: 48.44 %); type: functional
HCT-116 [31] = assay: Cell cycle arrest in human HCT-116 cells assessed as accumulation at S phase at 0.3 uM incubated for 24 hrs by RNaseA/propidium iodide staining based flow cytometry (reference value: 19.94 %); type: functional
HCT-116 [32] = assay: Induction of apoptosis in human HCT-116 cells assessed as viable cells at 0.3 uM incubated for 48 hrs by Annexin V-FITC/PI staining based flow cytometry analysis (Rvb= 94.18%); type: functional; conditions: read-out: Activity
SW480 [33] = assay: Anti-migratory activity against human SW480 cells assessed as upregulation of E-cadherin gene expression at 0.35 to 1.4 uM incubated for 24 hrs by RT-PCR assay; type: functional, cell-based; conditions: dose 0.35-1.4 µM

C[C@@H]1\C=C/C=C/C=C\C=C\C=C\C(=O)C2=C(O)C(=O)C[C@@]2(C)/C=C/C=C\C=C/C(=O)NC1
Activity (SW480 [1]): Dde | Activity (HCT-116 [2]): Active | Activity (HCT-116 [3]): Active | Activity (SW480 [4]): Dde | inhibition (SW480 [5]): Dde | Activity (HCT-116 [6]): Active | Activity (HCT-116 [7]): 5.1% | Activity (HCT-116 [8]): 4.46% | Activity (SW480 [9]): 5.1% | Activity (SW480 [10]): Active | Activity (SW480 [11]): 4.98% | Activity (HCT-116 [12]): 67% | Activity (HCT-116 [13]): 8.29% | Activity (SW480 [14]): 62.43% | Activity (SW480 [15]): 2.62% | Activity (HCT-116 [16]): Active | Activity (HCT-116 [17]): Active | Activity (SW480 [18]): Tde | Activity (HCT-116 [19]): Active | Activity (SW480 [20]): Active | Activity (HCT-116 [21]): Tde | Activity (HCT-116 [22]): Dde | Activity (SW480 [23]): 12.31% | Activity (HCT-116 [24]): Dde | Activity (HCT-116 [25]): Active | Activity (SW480 [26]): 0.19% | viability at 0.7 µM (SW480 [27]): 69.8% | Activity (HCT-116 [28]): 0.18% | Activity (HCT-116 [29]): Active | Activity (HCT-116 [30]): 48.48% | Activity (HCT-116 [31]): 10.04% | viability at 0.3 µM (HCT-116 [32]): 40.1% | Activity (SW480 [33]): Active
